Reference: US8293764B2, “Compositions and methods for disruption of BRCA2-Rad51 interaction” (The Regents of the University of California, priority 2004, dated 2012)
pIC50: −log10 of the molar value.

Columns and labels:
[1] = test system: MCF-7 breast cancer cells; experiment: Survival of cells under combination with chemotherapeutic agents or irradiation; type: cell-based
Experimental: It is therefore likely that combination of IBR2 with other chemotherapeutic agents may have synergistic effects. To test this possibility, survival of MCF-7 breast cancer cells treated with 8 μM IBR2 plus different doses of VP-16, taxol, camptothecin, or gamma-irradiation was measured. […] Thus, it should be appreciated that a combination of IBR2 with other conventional therapeutic agents may have potential clinical applications in treating various cancers.
To perform clonogenic survival assay, 1.5×10^3 MCF-7 cells were seeded in 10-cm dishes for 24 hours. Cells were then treated, in triplicate, with 5 μM IBR2 for 12 hours and then g-irradiated. Cells were continuously exposed to 5 μM IBR2 and re-fed every 4 days with fresh medium and IBR2. After 14-16 days, cells were fixed and stained with 2% methylene blue. Colonies consisting of more than 50 cells were counted.

[2] = test system: non-small-cell lung carcinoma (CALU-1, A427, Sklu-1, CALU-6), osteosarcoma (SaoS2, U2OS) and glioblastoma (T98G) cell lines; experiment: Proliferation of other cancer cell lines; type: cell-based; settings: CALU-1, A427, Sklu-1, CALU-6, SaoS2, U2OS
MCF-7 cells = experiment: S phase entry (BrdU) after nocodazole synchronization; type: cell-based; settings: cells synchronized at M phase by nocodazole, re-plated
Experimental: To test whether IBR2 treated cells are arrested at G1 and thus fail to enter S phase, MCF-7 cells were synchronized at M phase by nocodazole treatment and then re-plated to allow the entry to G1 phase. At different time points, cells were pulse labeled with BrdU to monitor S phase entry.
Cell culture, cell synchronization, BrdU labeling and determination of mitotic index: Breast cancer cell lines and MEF cell lines were cultured in high-glucose Dulbecco modified Eagle medium containing 10% fetal bovine serum. MCF-10A cells were cultured as described previously (Debnath et al., 2003). Cell synchronization at M phase was achieved by treatment with 0.1 μg/ml nocodazole for 8 hours. Cell synchronization at G1/S boundary was achieved by treatment with 1 mM hydroxyurea for 17 hours, 9 hours of release and again with 1 mM hydroxyurea for 14 hours. For BrdU labeling, cells were incubated with BrdU for 30 minutes and fixed for BrdU immunostaining using a BrdU labeling kit (Amersham Biosciences). For determination of mitotic index, cells were fixed in 4% formaldehyde in PBS containing 0.1 μg/ml DAPI for 30 minutes at room temperature and examined by fluorescence microscopy. 500-1000 nuclei per sample were counted to determine the number of M phase cells which only includes prometaphase, metaphase, anaphase and telophase.

Rad51-BRC repeat complex = target: T1, Rad51-BRC repeat complex (Homo sapiens, UniProt Q06609); experiment: SPR solution competition assay; type: binding; settings: SPR solution competition format; read-out: median inhibitory concentration (IC50), displacement of BRC repeat from complex with Rad51
T1 sequence (Q06609 1-339): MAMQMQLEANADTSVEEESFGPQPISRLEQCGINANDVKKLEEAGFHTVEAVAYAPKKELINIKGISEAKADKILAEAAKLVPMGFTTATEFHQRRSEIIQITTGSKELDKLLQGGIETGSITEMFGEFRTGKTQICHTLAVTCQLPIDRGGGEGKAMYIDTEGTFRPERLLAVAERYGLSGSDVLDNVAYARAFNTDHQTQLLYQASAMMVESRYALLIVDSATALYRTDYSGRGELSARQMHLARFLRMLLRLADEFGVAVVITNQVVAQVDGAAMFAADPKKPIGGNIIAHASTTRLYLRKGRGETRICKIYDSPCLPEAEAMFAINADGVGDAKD
Text: If the IBR compound indeed occupies the hydrophobic pocket for the entrance of Phe1524 in BRCA2, the oligomerization of Rad51 should also be affected since they share the same binding region. […] Therefore, if IBR2 mimics the BRC hairpin structure, the Rad51 multimerization will also be inhibited by IBR2. We compared the gel filtration profile of Rad51 between with and without IBR2. […] The inhibition of the Rad51 and BRC repeat binding was further analyzed by SPR technology in a solution competition format as previously described (see e.g., Science 303, 844-848).
Surface Plasmon Resonance binding assays: The assays were performed at 25° C. in HBSD buffer (10 mM HEPES, 150 mM NaCl, 0.1% DMSO) on Biacore3000 (Biacore Inc.). Sensor chips NTA or glutathione-modified CM5 were used to capture His-Rad51 or GST-BRC1, respectively. The capture level was about 130 resonance units at a flow rate of 5 μl/min. For sequential binding assays, chips were treated with compounds (1 μM) and then proteins (50 μg/ml). The retained resonance units (RU) were recorded and averaged from triplicate experiments. For competition assays (Vassilev et al., 2004), IBR2 was incubated with 50 μg/ml BRC at 25° C. for 15 minutes prior to use. Relative binding percentages were calculated with respect to the binding without IBR2 and averaged from two independent experiments.

O=S(=O)(Cc1ccccc1)N1C=Cc2ccccc2C1c1c[nH]c2ccccc12 (stereo not shown) [IBR2, 2-(benzylsulfonyl)-1-(1H-indol-3-yl)-1,2-dihydroisoquinoline]
synergy with VP-16 on cell survival ([1]; 8 μM IBR2 plus different doses of VP-16): Significant synergistic effects
synergy with camptothecin on cell survival ([1]; 8 μM IBR2 plus different doses of camptothecin): Significant synergistic effects
synergy with gamma-irradiation on clonogenic survival ([1]; 8 μM IBR2 plus different doses of gamma-irradiation): Significant synergistic effects
synergy with taxol on cell survival ([1]; 8 μM IBR2 plus different doses of taxol): Significant synergistic effects
proliferation [2]: significantly inhibited
S phase entry (BrdU positive cells) (MCF-7 cells): completely arrested at G1 and failed to enter S phase
pIC50 (Rad51-BRC repeat complex): ~6.94
